This data set is described as follows: logP determination by HPLC (EEC Directive 79/831 Annex V.A8), LC-MS.
[1] abbreviates: * acidic range, pH 2.7, 0.1% aqueous formic acid/acetonitrile.
Setting [2] is: pH 2.7, log P (pH2.7), pH 2.7, value given in the preparation text.
Setting [3] is: pH 2.7, logP, * acidic range, pH 2.7, 0.1% aqueous formic acid/acetonitrile.

In the case of `O=C(Cn1nc(C(F)F)cc1C(F)F)N1CCC(c2nc(CSc3ccccc3-c3ccccc3)cs2)CC1` [Compound I-19], the logP under setting [1] is 4.36*.
With `CC(C)(C)OC(=O)N1CCC(c2nc(CSC3CCCCC3)cs2)CC1` [IV-3, tert-Butyl 4-{4-[(cyclohexylsulphanyl)methyl]-1,3-thiazol-2-yl}piperidine-1-carboxylate], the chromatographic logP (in general, a lipophilicity value derived from retention on a column) under setting [2] came to 5.45.
With `Fc1ccc(F)c(NC(=S)N2CCC(c3nc(CSc4nnnn4-c4ccccc4)cs3)CC2)c1` [Compound I-23], the logP under setting [1] was 3.26*.
For `O=C(Cn1nc(C(F)F)cc1C(F)F)N1CCC(c2nc(CSC3=NOC(c4ccccc4)C3)cs2)CC1` (centres unmarked) [Compound I-58, 2-[3,5-Bis(difluoromethyl)-1H-pyrazol-1-yl]-1-{4-[4-({[5-phenyl-4,5-dihydro-1,2-oxazol-3-yl]sulphanyl}methyl)-1,3-thiazol-2-yl]piperidin-1-yl}ethanone], the chromatographic logP reads like this: under setting [2], 3.4; under setting [3], 3.4.
On to `Cc1cc(C(F)(F)F)nn1CC(=O)N1CCC(c2nc(CSc3nccn3-c3ccccc3)cs2)CC1` [Compound I-61], for which the logP under setting [1] is recorded as 2.22*.
`CC(C)(C)OC(=O)N1CCC(c2nc(CSc3nnnn3-c3ccccc3)cs2)CC1` [IV-4, tert-Butyl 4-(4-{[(1-phenyl-1H-tetrazol-5-yl)sulphanyl]methyl}-1,3-thiazol-2-yl)piperidine-1-carboxylate] had a chromatographic logP under setting [2] of 3.91.
With `COc1ccc(Cl)cc1NC(=O)N1CCC(c2nc(CSc3nnnn3-c3ccccc3)cs2)CC1` [Compound I-79], the logP under setting [1] was 3.8*.
Consider `Cc1ccc(C)c(CC(=O)N2CCC(c3nc(CSC45CC6CC(CC(C6)C4)C5)cs3)CC2)c1` [Compound I-27], for which the logP under setting [1] is 5.99*.
Turning to `Cc1cc(C(F)(F)F)nn1CC(=O)N1CCC(c2nc(CSC3=NOC(c4ccccc4)C3)cs2)CC1` (racemic) [Compound I-88], the logP under setting [1] is 3.52*.
As to `Cc1noc(C)c1NC(=S)N1CCC(c2nc(CSc3nnnn3-c3ccccc3)cs2)CC1` [Compound I-99], under setting [1], the logP was 2.7*.
For `Cc1cc(C(F)(F)F)nn1CC(=O)N1CCC(c2nc(C[S+]([O-])C3CCCCC3)cs2)CC1` (centres unmarked) [Compound I-11, 1-(4-{4-[(Cyclohexylsulphinyl)methyl]-1,3-thiazol-2-yl}piperidin-1-yl)-2-[5-methyl-3-(trifluoromethyl)-1H-pyrazol-1-yl]ethanone], the chromatographic logP was 2.55 under setting [2] and 2.55 under setting [3].
`CC(C)(C)OC(=O)N1CCC(c2nc(CSc3cccc4ccccc34)cs2)CC1` [IV-1, tert-Butyl 4-{4-[(1-naphthylsulphanyl)methyl]-1,3-thiazol-2-yl}piperidine-1-carboxylate] had a chromatographic logP under setting [2] of 5.33.
With `CC(C)(C)OC(=O)N1CCC(c2nc(CSC34CC5CC(CC(C5)C3)C4)cs2)CC1` [IV-2, tert-Butyl 4-(4-{[(3S,5S,7S)-adamantan-1-ylsulphanyl]methyl}-1,3-thiazol-2-yl)piperidine-1-carboxylate], under setting [2], the chromatographic logP was found to be 6.66.
For `O=C(Cn1nc(C(F)F)cc1C(F)F)N1CCC(c2nc(CSc3nccn3-c3ccccc3)cs2)CC1` [Compound I-65], the logP under setting [1] is listed as 2.13*.
Still for that read-out and setting: the figure for `Fc1ccc(Br)c(NC(=S)N2CCC(c3nc(CSc4nnnn4-c4ccccc4)cs3)CC2)c1` [Compound I-66] is 3.46*.
`CC(C)(C)OC(=O)N1CCC(c2nc(CI)cs2)CC1` [VI-1, tert-Butyl 4-[4-(iodomethyl)-1,3-thiazol-2-yl]piperidine-1-carboxylate]: under setting [2], the chromatographic logP was 3.71.
For `Cc1cc(C(F)(F)F)nn1CC(=O)N1CCC(c2nc(C[S+]([O-])c3nnnn3-c3ccccc3)cs2)CC1` (centres unmarked) [Compound I-14, 2-[5-Methyl-3-(trifluoromethyl)-1H-pyrazol-1-yl]-1-[4-(4-{[(1-phenyl-1H-tetrazol-5-yl)sulphinyl]methyl}-1,3-thiazol-2-yl)piperidin-1-yl]ethanone], the chromatographic logP amounted to 2.69 under setting [2] and 2.69 under setting [3].

The values are drawn from patent US20130090476A1, “Thiazolylpiperidine Derivatives as Fungicides” (priority 2009, published 2013).
